Earlier results in patent US7666658B1, “Antibody catalysis of enantio- and diastereo-selective aldol reactions” (The Scripps Research Institute, priority 1999, dated 2010).

Conditions: retro-aldolization of fructose-1,6-bisphosphate, reported at 4° C.

In the case of “muscle aldolase: nature's muscle aldolase, natural enzyme cleaving fructose-1,6-bisphosphate”, the efficiency is listed as 4.9×10^4 s^−1M^−1.
